From patent US7915022B2, “Carbonyl reductase, gene thereof and method of using the same” (priority 2004, dated 2011)

Experiments:
[1] = test system: polypeptide consisting of the amino acid sequence shown in SEQ ID NO: 3 (carbonyl reductase), cell-free extract of E. coli HB101 (pNTOM3); test: Substrate specificity of polypeptide produced by transformant E. coli HB101 (pNTOM3); format: biochemical, Ogataea minuta var. minuta NBRC0975; settings: 1 mM substrate, 0.25 mM NADPH, pH 6.5, 30° C., 1 min; relative to activity on CBPB as 100%
Description: (§1) In 100 mM phosphate buffer (pH 6.5) containing 0.33% (v/v) dimethyl sulfoxide were dissolved a carbonyl compound to be a substrate to a final concentration of 1 mM, and a coenzyme NADPH to a final concentration of 0.25 mM, respectively. Thereto was added a cell-free extract of E. coli HB101 (pNTOM4) or E. coli HB101 (pNTOM3) prepared in Example 7, and the mixture was reacted at 30° C. for 1 min. The reduction activity on each carbonyl compound was calculated from the rate of decrease in the absorbance of the reaction mixture at a wavelength of 340 nm, and shown in Table 2 as a value relative to the activity on (3S)-1-chloro-3-tert-butoxycarbonylamino-4-phenyl-2-butanone as 100%.

[2] = test system: polypeptide consisting of the amino acid sequence shown in SEQ ID NO: 4 (carbonyl reductase), cell-free extract of E. coli HB101 (pNTOM4); test: Substrate specificity of polypeptide produced by transformant E. coli HB101 (pNTOM4); format: biochemical, Ogataea minuta var. minuta NBRC0975; settings: 1 mM substrate, 0.25 mM NADPH, pH 6.5, 30° C., 1 min; relative to activity on CBPB as 100%
Description: as §1

| Structure (SMILES) | relative activity (%) E. coli HB101 (pNTOM3) [1] [%] | relative activity (%) E. coli HB101 (pNTOM4) [2] [%] |
| --- | --- | --- |
| CCOC(=O)CC(=O)COC(C)=O [ethyl 4-acetoxyacetoacetate] | 465 | 1 |
| CCOC(=O)CC(=O)c1ccccc1 [ethyl benzoylacetate] | 1233 | 0 |
| O=C(CO)c1ccccc1 [2-hydroxyacetophenone] | 32 | 1 |
| CC(=O)c1ccc(C)cc1 [4′-methylacetophenone] | 41 | 1 |
| COC(=O)CC(C)=O [methyl acetoacetate] | 8 | 0 |
| CC(=O)c1cccc(O)c1 [3′-hydroxyacetophenone] | 33 | 0 |
| O=C(CCl)c1cccc(Cl)c1 [2-chloro-1-(3′-chlorophenyl)ethanone] | 1301 | 33 |
| CCOC(=O)C1CCC(=O)C1 (centres unmarked) [ethyl 3-oxocyclopentanecarboxylate] | 484 | 12 |
| CCOC(=O)C(C)=O [ethyl pyruvate] | 1067 | 23 |
| O=Cc1cccc([N+](=O)[O-])c1 [m-nitrobenzaldehyde] | 851 | 29 |
| CCC(=O)Cc1ccccc1 [1-phenyl-2-butanone] | 285 | 2 |
| CCCCCCCCOC(=O)CC(=O)CCl [n-octyl 4-chloroacetoacetate] | 466 | 24 |
| CCOC(=O)C(=O)CCc1ccccc1 [ethyl 2-oxo-4-phenylbutyrate] | 127 | 106 |
| COc1ccc2c(c1)CC(=O)CC2 [7-methoxy-2-tetoralone] | 599 | 6 |
| CC(=O)CC(=O)OCc1ccccc1 [benzyl acetoacetate] | 883 | 4 |
| O=Cc1ccncc1 [pyridine-4-aldehyde] | 571 | 2 |
| O=Cc1ccc([N+](=O)[O-])cc1 [p-nitrobenzaldehyde] | 1166 | 21 |
| CCCCCCC(C)=O [2-octanone] | 808 | 3 |
| CCC(=O)c1ccccc1 [propiophenone] | 183 | 2 |
| CC(C)=O [acetone] | 47 | 0 |
| C=CC(C(C)=O)C(=O)OCC (centres unmarked) [ethyl 2-eteneacetoacetate] | 2013 | 10 |
| O=C1CCCC1 [cyclopentanone] | 8 | 0 |

| Structure (SMILES) | relative activity (%) E. coli HB101 (pNTOM3) [1] [%] | relative activity (%) E. coli HB101 (pNTOM4) [2] [%] |
| --- | --- | --- |
| O=Cc1ccccc1[N+](=O)[O-] [o-nitrobenzaldehyde] | 1621 | 89 |
| CC(=O)c1cccc([N+](=O)[O-])c1 [3′-nitroacetophenone] | 273 | 31 |
| O=Cc1ccccc1 [benzaldehyde] | 81 | 1 |
| O=C(c1ccccc1)C(O)c1ccccc1 (centres unmarked) [benzoin] | 4018 | 5 |
| COc1ccc(C(C)=O)cc1OC [3′,4′-dimethoxyacetophenone] | 51 | 4 |
| CC(=O)CC(C)=O [acetylacetone] | 23 | 0 |
| CC(=O)c1ccccc1 [acetophenone] | 215 | 0 |
| O=Cc1cccc(Cl)c1 [m-chlorobenzaldehyde] | 344 | 17 |
| CC(C=O)c1ccccc1 (centres unmarked) [2-phenylpropionaldehyde] | 479 | 3 |
| CCOC(=O)CC(=O)CBr [ethyl 4-bromoacetoacetate] | 476 | 7 |
| CCOC(=O)C(=O)c1ccccc1 [ethyl benzoylformate] | 296 | 20 |
| CC(=O)c1cnccn1 [acetylpyrazine] | 185 | 0 |
| CC(=O)c1ccc(Cl)cc1 [4′-chloroacetophenone] | 35 | 9 |
| CC(=O)c1ccccn1 [2-acetylpyridine] | 29 | 0 |
| CC(=O)c1ccc(F)cc1 [4′-fluoroacetophenone] | 28 | 1 |
| CC(=O)CCc1ccccc1 [benzylacetone] | 66 | 0 |
| CCOC(=O)CC(=O)CCl [ethyl 4-chloroacetoacetate] | 4547 | 22 |
| CC(=O)CO [hydroxyacetone] | 51 | 0 |
| CCCCCC(C)=O [2-heptanone] | 102 | 0 |
| CCOC(=O)C(Cl)C(=O)c1ccccc1 (centres unmarked) [ethyl 2-chloro-3-oxo-3-phenylpropionate] | 716 | 5 |
| CC(C)(C)OC(=O)N[C@@H](Cc1ccccc1)C(=O)CCl [CBPB, (3S)-1-chloro-3-tert-butoxycarbonylamino-4-phenyl-2-butanone] | 100 | 100 |
| CC(=O)c1cccnc1 [3-acetylpyridine] | 15 | 0 |

| Structure (SMILES) | relative activity (%) E. coli HB101 (pNTOM3) [1] [%] | relative activity (%) E. coli HB101 (pNTOM4) [2] [%] |
| --- | --- | --- |
| CCOC(=O)C(C)C(C)=O (centres unmarked) [ethyl 2-methylacetoacetate] | 619 | 4 |
| O=CCCc1ccccc1 [3-phenylpropionaldehyde] | 2410 | 7 |
| CCC(C)=O [2-butanone] | 22 | 0 |
| CCC=O [propionaldehyde] | 99 | 0 |
| COC(=O)C(C)=O [methyl pyruvate] | 674 | 5 |
| O=C1CCCc2ccccc21 [1-tetoralone] | 146 | 1 |
| CC(=O)c1ccncc1 [4-acetylpyridine] | 98 | 0 |
| CCOC(=O)CC(=O)COCc1ccccc1 [ethyl 4-benzyloxyacetoacetate] | 1259 | 8 |
| CCOC(=O)CC(C)=O [ethyl acetoacetate] | 137 | 0 |
| O=Cc1ccccn1 [2-pyridinecarbaldehyde] | 56 | 1 |
| O=Cc1ccccc1Cl [o-chlorobenzaldehyde] | 269 | 17 |
| CCOC(=O)C(Cl)C(C)=O (centres unmarked) [ethyl 2-chloroacetoacetate] | 3309 | 40 |
| O=Cc1ccc(Cl)cc1 [p-chlorobenzaldehyde] | 91 | 12 |
| CC(=O)CC(=O)OC(C)(C)C [tert-butyl acetoacetate] | 1330 | 2 |
| O=CCCCC=O [glutaraldehyde] | 80 | 1 |
| CCCCCCCCC(=O)C(=O)OCC [ethyl 2-oxodecanoate] | 985 | 5 |
| CCCCC(C)=O [2-hexanone] | 11 | 0 |
| CCCC=O [n-butylaldehyde] | 168 | 0 |
| CC(=O)C(C)=O [diacetyl] | 444 | 5 |
| CCCCCC=O [n-hexylaldehyde] | 265 | 3 |
